Molecular target: T1, human GPR40 (Homo sapiens, UniProt O14842)
T1 construct: expressed in transfected cells; host or cells: HEK cells stably expressing the aequorin reporter
Test: Inositol Phosphate Turnover (IP1) Assay 3
Assay type: cell-based
Settings: HEK cells stably expressing human GPR40
Method: Human and mouse GPR40 stable cell-lines were generated in CHO cells stably expressing NFAT BLA (Beta-lactamase). A human GPR40 stable cell-line was generated in HEK cells stably expressing the aequorin expressing reporter. The expression plasmids were transfected using lipofectamine (Life Technologies) following manufacturer's instructions. Stable cell-lines were generated following drug selection.
Inositol Phosphate Turnover (IP1) Assay 3:
The assay was performed in 384-well format. HEK cells stably expressing human GPR40 were plated at 7500 cells per well in growth medium (DMEM/10% fetal calf serum). Cell plates were then incubated 16 hours at 37 degrees in a 5% CO2 incubator.
Measurement of Inositol Phosphate Turnover (IP) was performed using the CisBio IP-One kit (Part number 62IPAPEB). After the 16 hour incubation, the growth media was removed by centrifugation using the BlueWasher (AusWasher GUI Ver. v1.0.1.8) Protocol #21—“Light Dry” and 10 ul of stimulation buffer (prepared as described in the kit) was added to each well. In a separate plate, compounds were diluted in DMSO (200-fold over the final concentration in the assay well) and 50 nl was acoustically transferred to the appropriate well in the assay cell plate. The plates were then incubated for 60 minutes at 37 degrees in a 5% CO2 incubator. 10 ul of detection buffer (also prepared as described in the IP-One kit) was added to each well and the plates were incubated at rt for 60 minutes in the dark. The plates were then read in a Perkin Elmer EnVision or equivalent reader able to measure FRET. Fluorescent ratio of emission at 665 and 620 nm was then converted to IP1 concentration by back calculating from an IP1 standard curve prepared at the time of the assay. Data is normalized to % activity using a reference compound and EC50s determined using a standard 4-parameter fit.

T1 sequence (O14842 whole entry): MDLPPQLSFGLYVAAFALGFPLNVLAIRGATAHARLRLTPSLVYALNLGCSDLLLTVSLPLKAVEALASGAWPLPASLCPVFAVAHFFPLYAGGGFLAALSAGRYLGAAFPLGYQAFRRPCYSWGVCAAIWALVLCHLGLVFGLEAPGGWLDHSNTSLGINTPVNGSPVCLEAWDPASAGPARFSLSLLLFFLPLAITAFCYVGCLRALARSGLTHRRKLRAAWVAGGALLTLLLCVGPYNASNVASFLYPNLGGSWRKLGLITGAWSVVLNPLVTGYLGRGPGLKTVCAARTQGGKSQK

Point of comparison: `COc1cc(-c2ccc(C3CCc4ccc([C@H](C5CC5)[C@H](C)C(=O)O)cc4O3)c(CN3CCCCC3(C)C)c2)c(F)cn1` (single isomer, unassigned) [Example 128a], EC50 0.07 nM. Against it:
- COc1cc(-c2ccc(C3CCc4ccc([C@H](C5CCC5)[C@H](C)C(=O)O)cc4O3)cc2CN2CCCC2(C)C)c(F)cn1 (single isomer, unassigned) [Example 109] — within 1.5-fold, 0.1 nM
- CCC1CCCCN1Cc1cc(C2CCc3ccc([C@H](C4CC4)[C@H](C)C(=O)O)cc3O2)ccc1-c1cc(OC)ncc1F (single isomer, unassigned) [Example 273a] — within 1.5-fold, 0.08 nM
- CCN(Cc1cc(-c2cc(OC)ncc2F)ccc1C1CCc2ccc([C@H](C3CC3)[C@H](C)C(=O)O)cc2O1)C(C)C (mixture of isomers) [Example 124] — 4.3-fold higher, 0.3 nM
- CCN(CC)Cc1cc(C2CCc3ccc([C@H](C4CC4)[C@H](C)C(=O)O)c(F)c3O2)ccc1-c1cc(OC)ncc1F (single isomer, unassigned) [Example 204] — 30-fold higher, 2.1 nM
- COc1cc(-c2ccc(C3CCc4ccc([C@H](C5CC5)[C@H](C)C(=O)O)cc4O3)cc2CN(C)C(C)(C)C)c(C#N)cn1 (single isomer, unassigned) [Example 194] — 16-fold higher, 1.1 nM
- CCN(Cc1cc([C@H]2CCc3ccc([C@H](C4CC4)[C@H](C)C(=O)O)cc3O2)ccc1-c1cc(OC)ncc1F)C(C)C [Example 139] — 7.1-fold higher, 0.5 nM
- COc1cc(-c2ccc([C@@H]3CCc4ccc([C@H](C5CC5)[C@H](C)C(=O)O)cc4O3)cc2CNC(C)C)c(F)cn1 [Example 232] — 510-fold higher, 36 nM
- COc1cc(-c2ccc(C3CCc4ccc([C@H](C5CC5)[C@H](C)C(=O)O)cc4O3)cc2CN(C(C)C)C(C)(C)C)ccn1 (stereo partly shown) [Example 237] — 2.4-fold higher, 0.17 nM
- COc1cc(-c2ccc(C3CCc4ccc([C@H](C5CC5)[C@H](C)C(=O)O)cc4O3)cc2CN2[C@H](C)CCC[C@H]2C)c(F)cn1 (stereo partly shown) [Example 257] — 5.7-fold higher, 0.4 nM
- COc1cc(-c2ccc(C3CCc4ccc([C@H](C5CC5)[C@H](C)C(=O)O)cc4O3)cc2CN2CCC3(CC3)C2)c(F)cn1 (stereo partly shown) [Example 263] — 11-fold higher, 0.8 nM
- COc1cc(-c2ccc(C3CCc4ccc([C@H](C5CC5)[C@H](C)C(=O)O)c(F)c4O3)cc2CN2[C@H](C)CC[C@H]2C)c(F)cn1 (single isomer, unassigned) [Example 209] — 7.1-fold higher, 0.5 nM
- CCC1CCCN1Cc1cc(C2CCc3ccc([C@H](C4CC4)[C@H](C)C(=O)O)cc3O2)ccc1-c1cc(OC)ncc1F (single isomer, unassigned) [Example 267b] — within 1.5-fold, 0.1 nM
- COc1cc(-c2ccc(C3CCc4ccc([C@H](C5CC5)[C@H](C)C(=O)O)cc4O3)c(CN(C)C(C)(C)C)c2)ccn1 (single isomer, unassigned) [Example 114a] — 21-fold higher, 1.5 nM
- COc1cc(-c2ccc(C3CCc4ccc([C@H](C5CC5)[C@H](C)C(=O)O)cc4O3)cc2CN2C[C@H]3CC[C@@H]2C3)c(F)cn1 (stereo partly shown) [Example 269] — 89-fold higher, 6.2 nM
- COc1cc(-c2ccc(C3CCc4ccc([C@H](C5CC5)[C@H](C)C(=O)O)cc4O3)c(CN3[C@H](C)CC[C@H]3C)c2)ccn1 (single isomer, unassigned) [Example 116c] — 14000-fold higher, 1000 nM
- COc1cc(-c2ccc(C3CCc4ccc([C@H](C5CC5)[C@H](C)C(=O)O)cc4O3)cc2CN(C)C(C)(C)C)ccn1 (stereo partly shown) [Example 234] — 300-fold higher, 21 nM
- COc1cc(-c2ccc(C3CCc4ccc([C@H](C5CC5)[C@H](C)C(=O)O)c(F)c4O3)cc2CN2CCCC2(C)C)c(F)cn1 (single isomer, unassigned) [Example 207] — 19-fold higher, 1.3 nM
- COc1cc(-c2ccc(C3CCc4ccc([C@H](C5CC5)[C@H](C)C(=O)O)cc4O3)c(CN3CCCC[C@H]3C)c2)c(F)cn1 (single isomer, unassigned) [Example 130b] — within 1.5-fold, 0.06 nM
- CCN(C)C(C)c1cc(C2CCc3ccc([C@H](C4CC4)[C@@H](C)C(=O)O)cc3O2)ccc1-c1cc(OC)ncc1F (stereo partly shown) [Example 246] — 31-fold higher, 2.2 nM
- COc1cc(-c2ccc(C3CCc4ccc([C@H](C5CC5)[C@H](C)C(=O)O)cc4O3)cc2CNC(C)(C)C)c(F)cn1 (stereo partly shown) [Example 233] — 600-fold higher, 42 nM
- COc1cc(-c2ccc(C3CCc4ccc([C@H](C5CC5)[C@H](C)C(=O)O)cc4O3)c(CN3CCCCC3(C)C)c2)ccn1 (single isomer, unassigned) [Example 117b] — 340-fold higher, 24 nM
- COc1cc(-c2ccc(C3CCc4ccc([C@H](C5CC5)[C@H](C)C(=O)O)cc4O3)cc2CN(C(C)C)C(C)C)c(C#N)cn1 (stereo partly shown) [Example 292] — within 1.5-fold, 0.1 nM
- COc1cc(-c2ccc(C3CCc4ccc([C@H](C5CC5)[C@H](C)C(=O)O)cc4O3)nc2CN2CCCC2)c(F)cn1 (stereo partly shown) [Example 90] — 140-fold higher, 9.5 nM
- CCN(CC)Cc1cc(C2CCc3ccc([C@H](C4CC4)[C@H](C)C(=O)O)cc3O2)c(F)cc1-c1ccnc(OC)c1 (single isomer, unassigned) [Example 181] — 200-fold higher, 14 nM
- COc1cc(-c2ccc(C3CCc4ccc([C@H](C5CC5)[C@H](C)C(=O)O)cc4O3)cc2CN2[C@H](C)CC[C@@H]2C)c(F)cn1 (stereo partly shown) [Example 251] — 4.3-fold higher, 0.3 nM
- COc1cc(-c2ccc(C3CCc4ccc([C@H](C5CC5)[C@H](C)C(=O)O)cc4O3)c(CN3CCC[C@H]3C)c2)ccn1 (single isomer, unassigned) [Example 119b] — 60-fold higher, 4.2 nM
- COc1cc(-c2ccc(C3CCc4ccc([C@H](C5CC5)[C@H](C)C(=O)O)cc4O3)c(CN(C)C(C)(C)C)c2)c(F)cn1 (single isomer, unassigned) [Example 125a] — 4.3-fold higher, 0.3 nM
- COc1cc(-c2ccc(C3CCc4ccc([C@H](C5CC5)[C@H](C)C(=O)O)cc4O3)c(CN(C(C)C)C(C)C)c2)c(F)cn1 (mixture of isomers) [Example 126] — within 1.5-fold, 0.1 nM
- CCN(CC)Cc1cc(C2CCc3ccc([C@H](C4CC4)[C@H](C)C(=O)O)cc3O2)ccc1-c1cc(OC)ncc1C#N (stereo partly shown) [Example 291] — 44-fold higher, 3.1 nM
- CCN(Cc1cc(C2CCc3ccc([C@H](C4CC4)[C@H](C)C(=O)O)cc3O2)ccc1-c1ccnc(OC)c1)C(C)C (stereo partly shown) [Example 287] — 47-fold higher, 3.3 nM
- COc1cc(-c2ccc(C3CCc4ccc([C@H](C5CCC5)[C@H](C)C(=O)O)cc4O3)cc2CN2CCCC2C)c(F)cn1 (single isomer, unassigned) [Example 101] — 3.6-fold higher, 0.25 nM
- COc1cc(-c2ccc(C3CCc4ccc([C@H](C5CC5)[C@H](C)C(=O)O)cc4O3)cc2CN2CCC(C)(C)C2)c(F)cn1 (stereo partly shown) [Example 266] — within 1.5-fold, 0.1 nM
- COc1cc(-c2ccc(C3CCc4ccc([C@H](C5CC5)[C@H](C)C(=O)O)cc4O3)c(CN3CCCC3)c2)c(F)cn1 (single isomer, unassigned) [Example 123b] — 20-fold higher, 1.4 nM
- COc1cc(-c2ccc(C3CCc4ccc([C@H](C5CC5)[C@H](C)C(=O)O)cc4O3)cc2CN2CCCCC23CC3)ccn1 (stereo partly shown) [Example 276] — 2.9-fold higher, 0.2 nM
- CCC1CCCCN1Cc1cc(C2CCc3ccc(C(C4CC4)C(C)C(=O)O)cc3O2)ccc1-c1ccnc(OC)c1 (single isomer, unassigned) [Example 258a] — 24-fold higher, 1.7 nM
- COc1cc(-c2ccc(C3CCc4ccc([C@H](C5CC5)[C@H](C)C(=O)O)cc4O3)cc2CN2[C@@H](C)CCC[C@@H]2C)ccn1 (stereo partly shown) [Example 241] — 16-fold higher, 1.1 nM
- CCN(Cc1cc(C2CCc3ccc([C@H](C4CC4)[C@H](C)C(=O)O)cc3O2)c(F)cc1-c1ccnc(OC)c1)C(C)C (single isomer, unassigned) [Example 186] — 110-fold higher, 7.9 nM
- COc1cc(-c2ccc(C3CCc4ccc([C@H](C5CC5)[C@H](C)C(=O)O)cc4O3)cc2CN2CCC3CC32)c(F)cn1 (single isomer, unassigned) [Example 256a] — 8.6-fold higher, 0.6 nM
- COc1cc(-c2ccc(C3CCc4ccc([C@H](C5CC5)[C@H](C)C(=O)O)cc4O3)c(CN3CCCC[C@H]3C)c2)ccn1 (single isomer, unassigned) [Example 120a] — 5.7-fold higher, 0.4 nM
- COc1cc(-c2ccc(C3CCc4ccc([C@H](C5CC5)[C@H](C)C(=O)O)cc4O3)nc2CN(C(C)C)C(C)C)ccn1 (stereo partly shown) [Example 91] — 6700-fold higher, 467 nM
- COc1cc(-c2ccc(C3CCc4ccc([C@H](C5CC5)[C@H](C)C(=O)O)cc4O3)c(CN3CCCC3)c2)ccn1 (single isomer, unassigned) [Example 112b] — 3900-fold higher, 273 nM
- CCC1CCCN1Cc1cc(C2CCc3ccc([C@H](C4CC4)[C@H](C)C(=O)O)cc3O2)ccc1-c1cc(OC)ncc1F (single isomer, unassigned) [Example 267a] — 10-fold higher, 0.7 nM
- CCOc1cc(-c2ccc(C3CCc4ccc([C@H](C5CC5)[C@H](C)C(=O)O)cc4O3)cc2CN(CC)CC)c(Cl)cn1 (single isomer, unassigned) [Example 214] — 170-fold higher, 12 nM
- CCN(C(C)C)C(C)c1cc(C2CCc3ccc([C@H](C4CC4)[C@H](C)C(=O)O)cc3O2)ccc1-c1ccnc(OC)c1 (single isomer, unassigned) [Example 248] — 160-fold higher, 11.5 nM
- COc1cc(-c2ccc(C3CCc4ccc([C@H](C5CC5)[C@H](C)C(=O)O)cc4O3)c(CN(C(C)C)C(C)C)c2)c(F)cn1 (single isomer, unassigned) [Example 126b] — 39-fold higher, 2.7 nM
